Laboratory results as given in patent publication US10292973B2, “Covalent irreversible inhibitors of USP7 as anti-cancer agents” (PROGENRA, INC., priority 2015, dated 2019).
Entries after “also recorded” stand apart in the source; their conditions may differ.

Tests used:
USP7core C223A = USP7core C223A (Homo sapiens, UniProt Q93009, C223A); assay: Covalent adduct formation with active site cysteine mutant USP7core C223A by LC-MS; format: binding; conditions: 5 μM USP7core C223A, 100 μM compound, room temperature, 4 h
Sequence of USP7core C223A (Q93009 214-521 C223A limits assumed): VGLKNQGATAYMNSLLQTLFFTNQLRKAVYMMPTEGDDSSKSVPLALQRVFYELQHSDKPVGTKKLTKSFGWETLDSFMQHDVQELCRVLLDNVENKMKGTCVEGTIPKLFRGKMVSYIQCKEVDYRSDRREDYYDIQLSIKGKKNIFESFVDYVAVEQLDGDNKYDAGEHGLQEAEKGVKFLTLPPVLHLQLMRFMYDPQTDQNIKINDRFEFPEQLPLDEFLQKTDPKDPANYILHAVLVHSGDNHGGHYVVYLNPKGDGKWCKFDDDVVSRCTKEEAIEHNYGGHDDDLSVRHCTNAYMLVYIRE
Procedure: (§1) FIG. 4 provides data showing an example of the covalent irreversible nature of disclosed USP7 inhibitors. 5 μM purified USP7core WT or active site cysteine mutant C223A were incubated with 100 μM Compound 5 or DMSO at room temperature for 4 hrs, and then the protein/compound reaction products were mixed with equal volume of 0.1% Trifluoroacetic acid (TFA) before LC-MS injection. The samples were analyzed by reverse-phase liquid chromatography coupled to UV and MS detection (Agilent, 6220 Accurate-Mass Time-of-Flight (TOF) LC/MS). […] 5μM purified USP7core WT or C223A were incubated with 100 μM of an exemplary compound of the present invention (for example, Compound 5) or DMSO at room temperature for 4 h, and then the protein/compound reaction products were mixed with equal volume of 0.1% Trifluoroacetic acid (TFA). The samples were analyzed by reverse-phase liquid chromatography coupled to UV and MS detection (Agilent, 6220 Accurate-Mass Time-of-Flight (TOF) LC/MS).

DNMT1, UHRF1 and HDM2 = assay: Immunoblot of USP7 substrates DNMT1, UHRF1 and HDM2 in Jurkat cells; format: cell-based; conditions: 24 h treatment, immunoblot (FIG. 6)
Procedure: FIG. 6 graphically illustrates a decrease in USP7 oncogenic substrates DNMT1, UHRF1 and HDM2 levels in Jurkat cells treated with the USP7i compound 5. 20 μg total cell lysates from each samples were separated on 10% SDS-PAGE and immunoblotted with antibodies against DNMT1, UHRF1, HDM2 and Actin (loading control).
Jurkat cells were incubated with an exemplary compound of the present invention (e.g., compound 5), washed, and incubated for an additional 0-96 h. USP7 was immuno-precipitated from lysates and USP7 activity measured. […] Total cell deubiquitinase activity can be performed to determine selectivity of these compounds (FIG. 5C). These experiments delineate a simple, powerful biomarker for determining the dose-efficacy relationship in the pre-clinical/clinical evaluation of irreversible USP7 inhibitors. Inhibitors were also tested in cells for effects on various PD markers, including three major USP7 substrates, DNMT1, UHRF1 and HDM2 .

USP7 = biological target: T1, USP7 (Homo sapiens, UniProt Q93009); assay: DUB activity of USP7 immunoprecipitated from treated Jurkat cells (Ub-EKL assay), pulse treatment and washout; format: cell-based; conditions: washed; for USP7 catalytic activity returned: Jurkat cells exposed 2 hours, immunoprecipitated USP7
T1 construct: USP7 was immuno-precipitated from lysates and USP7 activity measured; endogenous in cells; host or cells: Jurkat cells
T1 sequence (Q93009 whole entry): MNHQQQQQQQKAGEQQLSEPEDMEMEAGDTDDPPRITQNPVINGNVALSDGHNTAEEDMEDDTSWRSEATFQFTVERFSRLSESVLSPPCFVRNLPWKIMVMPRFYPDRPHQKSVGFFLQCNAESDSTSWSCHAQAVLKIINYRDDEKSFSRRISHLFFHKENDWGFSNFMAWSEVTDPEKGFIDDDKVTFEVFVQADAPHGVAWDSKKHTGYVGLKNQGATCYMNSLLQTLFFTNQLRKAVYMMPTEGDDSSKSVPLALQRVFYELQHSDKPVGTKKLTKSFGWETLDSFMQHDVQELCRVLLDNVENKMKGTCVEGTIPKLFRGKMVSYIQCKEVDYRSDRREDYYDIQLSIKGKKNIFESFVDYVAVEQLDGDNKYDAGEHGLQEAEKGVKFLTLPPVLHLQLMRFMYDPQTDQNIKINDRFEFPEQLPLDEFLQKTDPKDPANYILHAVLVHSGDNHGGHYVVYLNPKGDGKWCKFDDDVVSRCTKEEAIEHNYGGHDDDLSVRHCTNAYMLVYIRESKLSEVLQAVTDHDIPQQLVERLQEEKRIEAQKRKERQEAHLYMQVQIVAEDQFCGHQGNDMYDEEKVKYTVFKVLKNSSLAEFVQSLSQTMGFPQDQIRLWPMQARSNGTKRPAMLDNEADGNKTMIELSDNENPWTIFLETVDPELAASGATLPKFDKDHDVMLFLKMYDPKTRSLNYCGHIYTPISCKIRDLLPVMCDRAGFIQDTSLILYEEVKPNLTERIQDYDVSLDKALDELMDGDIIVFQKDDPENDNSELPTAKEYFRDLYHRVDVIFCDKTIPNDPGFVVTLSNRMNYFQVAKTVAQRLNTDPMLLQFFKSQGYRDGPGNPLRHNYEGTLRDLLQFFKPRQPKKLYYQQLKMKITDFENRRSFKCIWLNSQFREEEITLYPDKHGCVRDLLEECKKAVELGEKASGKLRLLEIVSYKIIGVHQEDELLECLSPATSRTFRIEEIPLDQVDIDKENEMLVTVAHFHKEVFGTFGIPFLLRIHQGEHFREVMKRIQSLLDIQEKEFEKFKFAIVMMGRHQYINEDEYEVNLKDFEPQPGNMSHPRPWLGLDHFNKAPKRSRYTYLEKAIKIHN
Procedure: FIG. 5A-FIG. 5C graphically illustrate examples of the disclosed USP7 inhibitors of the invention that are irreversible inhibitors. Jurkat cells were treated with 10 μM USP7i for indicated time period (FIG. 5A) or pulse treated for 2 h with 10 μM compound 5 (FIG. 5B), washed and incubated for the indicated time period followed by DUB activity measurement of immunoprecipitated USP7 as well as total cell lysate (FIG. 5C) using Ub-EKL assay as described previously (U.S. Pat. No. 8,680,139). A portion of the immunoprecipitated USP7 is separated on 10% SDS-PAGE and immunoblotted with anti-USP7 antibody to detect the level of USP7 protein (shown at the top of graphs in FIG. 5A and FIG. 5B). […] Jurkat cells were exposed to compound 5 for 2 hours and the compounds were washed away followed by incubation for various time points. Cells were harvested, lysed and their USP7 immunoprecipitated and washed with buffer. […] Jurkat cells were incubated with an exemplary compound of the present invention (e.g., compound 5), washed, and incubated for an additional 0-96 h. USP7 was immuno-precipitated from lysates and USP7 activity measured. […] Total cell deubiquitinase activity can be performed to determine selectivity of these compounds (FIG. 5C). These experiments delineate a simple, powerful biomarker for determining the dose-efficacy relationship in the pre-clinical/clinical evaluation of irreversible USP7 inhibitors. Inhibitors were also tested in cells for effects on various PD markers, including three major USP7 substrates, DNMT1, UHRF1 and HDM2 .

USP7core WT = biological target: T2, USP7core WT (Homo sapiens, UniProt Q93009); assay: Covalent adduct formation with purified USP7core WT by LC-MS; format: binding; conditions: 5 μM USP7core WT, 100 μM compound, room temperature, 4 h
T2 construct: 5 μM purified USP7core WT or active site cysteine mutant C223A were incubated
T2 sequence (Q93009 214-521 limits assumed): as the sequence (Q93009 214-521 C223A limits assumed) above, with A10C counted along it
Procedure: as §1

[1] = pooled analysis of 14 phase I-III studies, various doses; cited from earlier work

USP7 catalytic activity returned (USP7; 48 hours after washout) | USP7 catalytic activity returned (USP7; 72 hours after washout) [%] | Compound | covalent adduct formation with active site mutant USP7 core C223A (USP7core C223A) | DNMT1 level (DNMT1, UHRF1 and HDM2) | HDM2 level (DNMT1, UHRF1 and HDM2) | UHRF1 level (DNMT1, UHRF1 and HDM2) | inhibition of USP7 activity after pulse treatment (USP7; Jurkat cells, 10 μM for 2 h, up to 72 h (FIG. 5B)) | covalent adduct formation with wild type USP7 core (USP7core WT) | patients who experienced immune-related adverse effects [1] [%]
about 55% | 68 | CS(=O)(=O)c1cccc(NC(=O)c2cc([N+](=O)[O-])c(Sc3c(Cl)cncc3Cl)s2)c1 [compound 5, 5-[(3,5-dichloropyridin-4-yl)sulfanyl]-N-[3-(methylsulfonyl)phenyl]-4-nitrothiophene-2-carboxamide] | not in the active site cysteine mutant enzyme; also recorded: failed to form an adduct | decrease | decrease | decrease | prolonged inhibition of USP7 activity, even after 72 h | covalent irreversible adduct formation; also recorded: formed a covalent adduct | –
– | – | ipilimumab | – | – | – | – | – | – | 64
